Test results reported in PMC11371747, “The role of l-leucovorin uptake and metabolism in the modulation of 5-fluorouracil efficacy and antifolate toxicity” (Frontiers in Pharmacology, 2024).
Like-named read-outs stand apart in the source and are kept apart here.

Experiments:
[1] = tested on: H460 cells; test: Growth inhibition, SRB assay, H460 (NSCLC); format: cell-based, human; conditions: for IC50: H460, SRB, read-out: IC50, 72 h drug exposure
Experimental: (§1) Briefly, cells were seeded in triplicate in 96-well plates at their pre-established optimal density (CHO cells: 2,500 cells/100 μL; WiDr and HT29: 3,500 cells/100 μL; WiDr-LF/LV, LS174T: 5,000 cells/100 μL; CaCo2, CaCo2-LF/LV, H292, H28 and MSTO-211H: 6,000 cells/100 μL; H460, SW948 and SW1398: 7,000 cells/100 μL) and were allowed to attach for ∼ 24 h at 37°C in 5% CO2 and 100% humidified incubator. Thereafter, 100 μL of drug dilution without LV, or with 5 μM l-LV/5 μM d-LV/10 μM dL-LV (or any LV alone) were added. Cells were allowed to grow for 72 h at 37°C in 5% CO2 and 100% humidity. The t = 0 h control plate consisted of cells plated on the same day as the other cells, but after 24 h at 37°C in 5% CO2 and 100% humidity, only 100 μL medium was added and the cells were fixed immediately with 50% trichloroacetic acid (TCA) in milliQ water (25 μL per well) and put at 4°C for at least 1 h. Plates were washed five times with water and dried. Cells were stained with the SRB protein dye (0.4% (w/v) in 1% acetic acid. Excess dye was washed away four times with 1% acetic acid and plates were dried again. 200 μL of Tris (10 mM Tris (hydroxymethyl)-aminomethane in MQ) was added and optical density (OD) was read at 492 nm after mixing 2–3 min on a plate shaker.

[2] = tested on: CHO/C5-PCFT cells; test: Growth inhibition, SRB assay, CHO/C5-PCFT (PCFT-transfected); format: cell-based, Chinese hamster
Experimental: as §1

[3] = tested on: CHO/C5 cells; test: Growth inhibition, SRB assay, CHO/C5 (RFC-deficient); format: cell-based, Chinese hamster
Experimental: as §1

[4] = tested on: H292 cells; test: Growth inhibition, SRB assay, H292 (NSCLC); format: cell-based, human; conditions: for IC50: H292, SRB, read-out: IC50, 72 h drug exposure
Experimental: as §1

[5] = target: T1, thymidylate synthase (TS) (Homo sapiens, UniProt P04818); test: TS in situ inhibition assay (TSIA) in colon cancer cells; format: cell-based; conditions: WiDr, 4 h, antifolate alone
T1 construct: The principle of this assay is the measurement of TS enzymatic activity in intact cells; endogenous in cells; host or cells: colon cancer cell lines (WiDr, WiDr-LF, SW1398, LS174T and others)
T1 sequence (P04818 2-313 limits assumed): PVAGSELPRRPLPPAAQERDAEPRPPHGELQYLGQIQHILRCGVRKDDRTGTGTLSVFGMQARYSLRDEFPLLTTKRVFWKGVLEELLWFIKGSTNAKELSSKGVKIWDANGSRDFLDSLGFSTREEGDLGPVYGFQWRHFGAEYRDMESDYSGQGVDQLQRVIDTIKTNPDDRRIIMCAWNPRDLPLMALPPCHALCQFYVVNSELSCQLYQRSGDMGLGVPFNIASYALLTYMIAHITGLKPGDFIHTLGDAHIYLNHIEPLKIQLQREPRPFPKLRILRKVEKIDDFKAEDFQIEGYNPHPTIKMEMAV
Source text: The principle of this assay is the measurement of TS enzymatic activity in intact cells. Intact cells will readily internalize radioactively labelled [5-^3H]-deoxycytidine, which will be rapidly converted by deoxycytidine kinase (dCK) to [5-^3H]-dCMP and subsequently deaminated to [5-^3H]-dUMP, which will then serve as a substrate in the TS catalysed reaction to dTMP and ^3H2O; the quantity of ^3H2O formed over time is a measure of intracellular TS activity. […] This is because dCK has a higher, cell cycle independent activity than thymidine kinase 1, which is a cell cycle dependent enzyme. For this purpose, cancer cells were cultured in six wells plates at 2.5 × 10^5 cells/2 mL/well for 24 h. Thereafter, cells were exposed to drugs with or without the LV formulations at the indicated concentrations for 4 h. 2 h before the end of the incubation period [5-^3H]-2′-deoxycytidine (final concentration 1 µM) was added to the cells. […] In most cell lines we quantified dCK activity and dCK mRNA levels.

[6] = tested on: MSTO-211H cells; test: Growth inhibition, SRB assay, MSTO-211H (MPM); format: cell-based, human; conditions: for IC50: SRB, read-out: IC50, 72 h drug exposure
Experimental: as §1

[7] = tested on: CHO/C5-MOCK cells; test: Growth inhibition, SRB assay, CHO/C5-MOCK (empty vector); format: cell-based, Chinese hamster
Experimental: as §1

[8] = tested on: CHO/C5-hRFC cells; test: Growth inhibition, SRB assay, CHO/C5-hRFC (human RFC transfected); format: cell-based, Chinese hamster; conditions: CHO/C5-hRFC
Experimental: as §1

[9] = tested on: H28 cells; test: Growth inhibition, SRB assay, H28 (MPM); format: cell-based, human; conditions: for IC50: H28, SRB, read-out: IC50, 72 h drug exposure
Experimental: as §1

[10] = Cricetulus griseus, antifolate alone

IC50 ([1]; antifolate + 5 µM l-LV): 1.45 µM
IC50 ([1]; Homo sapiens, NCI-H460, 72 h, antifolate alone): 0.0028 ± 0.0001 µM
IC50 ([4]; antifolate + 5 µM l-LV): 19.1 µM
IC50 ([4]; Homo sapiens, NCI-H292, 72 h, antifolate alone): 0.0037 ± 0.0003 µM
IC50 [5]: 0.0177 ± 0.0047 µM
SMILES: C#CCC(Cc1cnc2nc(N)nc(N)c2n1)c1ccc(C(=O)N[C@@H](CCC(=O)O)C(=O)O)cc1 (stereo partly drawn) [PLX, pralatrexate]
Relative protection by 5 µM l-LV ([1]; H460, ratio IC50 antifolate + LV / IC50 antifolate): 502 ± 21
IC50 [2, 10]: 6.8 µM
IC50 ([2]; antifolate + 5 µM l-LV): 87.5 µM
IC50 [3, 10]: 9.5 µM
IC50 ([3]; antifolate + 5 µM l-LV): 48.3 µM
Relative protection by 5 µM l-LV ([4]; H292, ratio IC50 antifolate + LV / IC50 antifolate): 4,778 ± 1795
IC50 ([6]; Homo sapiens, 72 h, antifolate alone): 0.0024 ± 0.0001 µM
IC50 ([6]; antifolate + 5 µM l-LV): 3.34 µM
Relative protection by 5 µM l-LV ([6]; ratio IC50 antifolate + LV / IC50 antifolate): 1,601 ± 275
IC50 [7, 10]: 13.1 µM
IC50 ([7]; antifolate + 5 µM l-LV): > 100 µM
IC50 ([8]; antifolate + 5 µM l-LV): 0.9 µM
IC50 [8, 10]: 0.0038 µM
IC50 ([9]; antifolate + 5 µM l-LV): 14.6 µM
Relative protection by 5 µM l-LV ([9]; H28, ratio IC50 antifolate + LV / IC50 antifolate): 1834 ± 108
IC50 ([9]; Homo sapiens, NCI-H28, 72 h, antifolate alone): 0.011 ± 0.0006 µM
